Reference: PMC4578769, “Development of a Fluorescence-based Trypanosoma cruzi CYP51 Inhibition Assay for Effective Compound Triaging in Drug Discovery Programmes for Chagas Disease” (PLoS Neglected Tropical Diseases, 2015)
Read-outs that look alike come from different tables or passages of the source.

Assays:
[1] = target: T1, T. cruzi CYP51 (Tulahuen strain) (Trypanosoma cruzi, UniProt Q7Z1V1); experiment: biochemical; type: biochemical; conditions: for inhibition of T. cruzi CYP51 (in words): known CYP450 inhibitors
T1 construct: ompA leader (N); host or cells: E. coli JM109 (membrane fraction, bactosomes)
Description: E. coli membrane fractions containing the T. cruzi CYP51 (Tulahuen strain) (Bactosomes) were provided by Cypex Ltd.
For each concentration of test compound the rate of fluorescence units per minute was calculated as a percentage of the average rate of the solvent only control wells.
The percentage of solvent control values was then plotted against the concentration range. Using the following 4 parameter fit equation, an IC50 value can be determined.
y=Range/1+(x/IC50)^s+Background
With kinetic parameters established, a microtitre-based assay to measure inhibition of recombinantly expressed T. cruzi CYP51 by test compounds was then implemented. […] Incubations containing 37 pmoles/mL of T. cruzi CYP51 in bactosomes, 100 μM BOMCC, 10, 3.3, 1.0, 0.33, 0.1, 0.033 or 0.01 μM test compound (2% v/v solvent) in 50 mM potassium phosphate buffer (pH 7.4), were pre-incubated at 37°C for 5 minutes. Upon addition of NADPH regenerating system (7.8 mg [[…]] glucose-6-phosphate, 1.7 mg [[…]] NADP, 6 units/mL glucose-6-phosphate dehydrogenase in 2% w/v sodium bicarbonate buffer) production of fluorescent metabolite CHC was measured (Exc 410 nm, Em 460 nm) at 1 minute intervals over a 10 minute period. Rates of metabolite production per minute were compared to uninhibited controls and plotted against test compound concentration to obtain an IC50.

T. cruzi = conditions: cited from earlier work; for re-emergence of parasitaemia once dosing has been completed: clinical trial, patients

T1 sequence (Q7Z1V1 whole entry): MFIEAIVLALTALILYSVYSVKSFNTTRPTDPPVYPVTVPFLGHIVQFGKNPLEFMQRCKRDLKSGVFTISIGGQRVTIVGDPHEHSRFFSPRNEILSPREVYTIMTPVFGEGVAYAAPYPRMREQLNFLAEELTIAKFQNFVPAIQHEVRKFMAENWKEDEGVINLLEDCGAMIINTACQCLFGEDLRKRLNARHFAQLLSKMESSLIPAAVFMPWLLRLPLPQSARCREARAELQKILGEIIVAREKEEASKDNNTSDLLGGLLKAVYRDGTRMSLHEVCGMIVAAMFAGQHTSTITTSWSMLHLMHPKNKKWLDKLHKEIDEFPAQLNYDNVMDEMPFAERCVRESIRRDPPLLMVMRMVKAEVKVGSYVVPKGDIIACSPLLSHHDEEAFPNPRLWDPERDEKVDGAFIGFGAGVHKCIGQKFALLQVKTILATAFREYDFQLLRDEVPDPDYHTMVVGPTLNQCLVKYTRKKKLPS

SMILES	IC50 [1]	inhibition of T. cruzi CYP51 (in words) [1]	further results
Cc1nc2c([nH]1)c(=O)n(C)c(=O)n2Cc1ccco1 [Furafylline]	> 8 µM	did not appear to inhibit	
CCC(C)n1ncn(-c2ccc(N3CCN(c4ccc(OCC5COC(Cn6cncn6)(c6ccc(Cl)cc6Cl)O5)cc4)CC3)cc2)c1=O (centres unmarked) [Itraconazole]			curative activity in humans with chronic Chagas disease (T. cruzi): not demonstrated significant curative activity
CC(=O)N1CCN(c2ccc(OCC3COC(Cn4ccnc4)(c4ccc(Cl)cc4Cl)O3)cc2)CC1 (centres unmarked) [Ketoconazole]			curative activity in humans with chronic Chagas disease (T. cruzi): not demonstrated significant curative activity
Cn1cc[nH]c1=S [Methimazole]	> 8 µM		
Clc1ccc(COC(Cn2ccnc2)c2ccc(Cl)cc2Cl)c(Cl)c1 (centres unmarked) [Miconazole]	0.057 µM		
CC[C@@H]([C@H](C)O)n1ncn(-c2ccc(N3CCN(c4ccc(OC[C@@H]5CO[C@@](Cn6cncn6)(c6ccc(F)cc6F)C5)cc4)CC3)cc2)c1=O [Posaconazole]			re-emergence of parasitaemia once dosing has been completed (T. cruzi): re-emergence of parasitaemia in two thirds of patients
C=C[C@H]1C[N@@]2CC[C@H]1C[C@@H]2[C@@H](O)c1ccnc2ccc(OC)cc12 [Quinidine]	> 8 µM	did not appear to inhibit	
Nc1ccc(S(=O)(=O)Nc2ccnn2-c2ccccc2)cc1 [Sulphaphenazole]		did not appear to inhibit	IC50 ([1]; read-out: IC50 (μM), n = 3, 37 pmoles/mL T. cruzi CYP51 in bactosomes, 100 μM BOMCC, pH 7.4, 37°C, enzyme concentration defines minimum IC50 of approximately 0.02 μM): > 8 µM
Clc1ccccc1CN1CCc2sccc2C1 [Ticlopidine]	> 8 µM	did not appear to inhibit	
C[C@@H](c1nc(-c2ccc(C#N)cc2)cs1)[C@](O)(Cn1cncn1)c1ccc(F)cc1F [ravuconazole]			re-emergence of parasitaemia once dosing has been completed (T. cruzi): re-emergence of parasitaemia in two thirds of patients
